Where a name gives a salt, the structure may show the parent alone.
Target: PIKFYVE (Homo sapiens, UniProt Q9Y2I7)
Test: PIKFYVE assay (luciferase ADP-Glo kinase assay, Promega)
Format: biochemical
Protocol: The activity of Compounds 1-20 was measured using a PIKFYVE assay (luciferase ADP-Glo kinase assay available from Promega Corp. of Madison, Wis.).
The activity of Compounds 39-90 was also measured using a PIKFYVE assay (luciferase ADP-Glo kinase assay available from Promega Corp. of Madison, Wis.).
The activity of Compounds 93-347 was also measured using a PIKFYVE assay (luciferase ADP-Glo kinase assay available from Promega Corp. of Madison, Wis.).

Chain of PIKFYVE (Q9Y2I7 whole entry): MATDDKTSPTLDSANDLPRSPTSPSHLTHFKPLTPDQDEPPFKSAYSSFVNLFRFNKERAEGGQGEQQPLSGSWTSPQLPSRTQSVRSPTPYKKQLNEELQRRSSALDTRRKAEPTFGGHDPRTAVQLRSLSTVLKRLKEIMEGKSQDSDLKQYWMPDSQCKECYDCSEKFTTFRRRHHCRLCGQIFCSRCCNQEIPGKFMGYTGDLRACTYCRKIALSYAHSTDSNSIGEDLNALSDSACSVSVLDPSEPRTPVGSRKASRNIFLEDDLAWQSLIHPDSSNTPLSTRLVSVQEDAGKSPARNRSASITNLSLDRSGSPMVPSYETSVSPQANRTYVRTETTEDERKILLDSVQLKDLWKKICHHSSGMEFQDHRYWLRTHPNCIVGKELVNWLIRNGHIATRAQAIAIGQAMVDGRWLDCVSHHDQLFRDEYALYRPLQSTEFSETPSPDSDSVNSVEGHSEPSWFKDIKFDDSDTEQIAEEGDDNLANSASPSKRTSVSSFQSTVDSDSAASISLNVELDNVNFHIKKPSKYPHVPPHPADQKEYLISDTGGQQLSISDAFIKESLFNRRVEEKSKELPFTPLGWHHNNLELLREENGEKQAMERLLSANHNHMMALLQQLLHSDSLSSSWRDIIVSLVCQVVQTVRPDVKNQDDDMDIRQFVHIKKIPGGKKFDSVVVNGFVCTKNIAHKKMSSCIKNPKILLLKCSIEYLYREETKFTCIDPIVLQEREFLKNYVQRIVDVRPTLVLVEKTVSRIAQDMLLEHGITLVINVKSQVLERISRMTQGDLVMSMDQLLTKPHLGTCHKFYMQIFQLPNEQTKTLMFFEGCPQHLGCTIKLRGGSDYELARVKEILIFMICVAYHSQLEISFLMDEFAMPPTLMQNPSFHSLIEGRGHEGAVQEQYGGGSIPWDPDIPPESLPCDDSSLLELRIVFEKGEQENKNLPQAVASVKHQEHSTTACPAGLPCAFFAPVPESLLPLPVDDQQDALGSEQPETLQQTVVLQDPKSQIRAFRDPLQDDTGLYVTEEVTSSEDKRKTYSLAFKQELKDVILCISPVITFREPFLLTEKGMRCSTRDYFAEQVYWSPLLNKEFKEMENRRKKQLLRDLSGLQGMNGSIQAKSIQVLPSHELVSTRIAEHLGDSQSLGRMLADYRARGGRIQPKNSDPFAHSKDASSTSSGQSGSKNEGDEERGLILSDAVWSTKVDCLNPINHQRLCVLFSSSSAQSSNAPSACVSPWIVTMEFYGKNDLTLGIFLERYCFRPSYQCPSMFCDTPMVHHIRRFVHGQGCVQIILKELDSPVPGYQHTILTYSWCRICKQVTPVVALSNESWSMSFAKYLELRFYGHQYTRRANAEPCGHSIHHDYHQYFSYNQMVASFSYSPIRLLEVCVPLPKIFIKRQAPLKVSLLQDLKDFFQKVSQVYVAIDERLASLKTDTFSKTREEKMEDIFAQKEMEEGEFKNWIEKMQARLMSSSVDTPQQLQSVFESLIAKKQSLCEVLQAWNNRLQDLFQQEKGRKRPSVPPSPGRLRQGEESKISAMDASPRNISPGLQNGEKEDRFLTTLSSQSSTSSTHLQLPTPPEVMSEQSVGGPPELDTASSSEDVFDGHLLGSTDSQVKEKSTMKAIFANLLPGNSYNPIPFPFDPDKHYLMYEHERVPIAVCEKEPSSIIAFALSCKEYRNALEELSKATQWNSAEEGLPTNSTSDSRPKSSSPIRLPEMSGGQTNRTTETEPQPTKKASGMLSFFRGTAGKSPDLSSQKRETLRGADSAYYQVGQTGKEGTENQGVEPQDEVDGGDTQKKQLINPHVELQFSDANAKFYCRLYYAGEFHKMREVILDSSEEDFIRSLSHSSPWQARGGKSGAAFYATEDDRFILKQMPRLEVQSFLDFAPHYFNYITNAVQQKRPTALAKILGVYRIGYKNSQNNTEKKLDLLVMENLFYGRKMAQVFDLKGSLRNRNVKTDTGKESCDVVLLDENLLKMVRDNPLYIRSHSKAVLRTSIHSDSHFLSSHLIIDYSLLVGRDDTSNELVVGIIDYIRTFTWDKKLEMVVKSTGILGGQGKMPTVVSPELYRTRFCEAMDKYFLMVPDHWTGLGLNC

| Structure (SMILES) | IC50 (Table 2) | IC50 (Table 3) |
| --- | --- | --- |
| OCC(O)COc1nc(N2CCOCC2)cc(-n2ncc3ccccc32)n1 (centres unmarked) [Compound 53] | 101 to 1000 nM | – |
| Cc1cc(-c2ccccc2)nn1-c1cc(N2CCOCC2)c2[nH]ccc2n1 [Compound 243, 4-(5-(5-methyl-3-phenyl-1H-pyrazol-1-yl)-1H-pyrrolo[3,2-b]pyridin-7-yl)morpholine] | – | 100 to 5000 nM |
| Cn1cc(CCOc2nc(N3CCOCC3)cc(-n3ccc(-c4cccc(CO)c4)n3)n2)cn1 [Compound 89] | < 5 nM | – |
| CCc1cc(-c2ccccc2)nn1-c1cc(N2CCOCC2)nc([C@@H](CO)OC)n1 [Compound 294, (S)-2-(4-(5-ethyl-3-phenyl-1H-pyrazol-1-yl)-6-morpholinopyrimidin-2-yl)-2-methoxyethan-1-ol] | – | 10 to 100 nM |
| CO[C@H](C)c1cccc(-c2ccn(-c3cc(N4CCOCC4)nc(OCCc4cnn(C)c4)n3)n2)c1 (single isomer, unassigned) [Compound 340] | – | 10 to 100 nM |
| COCC(O)c1nc(N2CCOCC2)cc(-n2ccc(-c3cccc(C)c3)n2)n1 (centres unmarked) [Compound 49] | 5 to 100 nM | – |
| Cn1cc(CCOc2nc(N3CCOCC3)cc(-n3ccc(-c4ccccc4)n3)n2)cn1 [Compound 73] | < 5 nM | – |
| Cc1cccc(-c2ccn(-c3cc(N4CCOCC4)c4c(ccn4C)n3)n2)c1 [Compound 333, 4-(1-methyl-5-(3-(m-tolyl)-1H-pyrazol-1-yl)-1H-pyrrolo[3,2-b]pyridin-7-yl)morpholine] | – | 100 to 5000 nM |
| Cc1cn(-c2cc(N3CCOCC3)nc(OCCc3cnn(C)c3)n2)nc1-c1ccccc1 [Compound 63, 4-(2-(2-(1-methyl-1H-pyrazol-4-yl)ethoxy)-6-(4-methyl-3-phenyl-1H-pyrazol-1-yl)pyrimidin-4-yl)morpholine] | 101 to 1000 nM | – |
| Cn1cc(CCOc2nc(N3CCOCC3)cc(-n3ccc(C4CCCCC4)n3)n2)cn1 [Compound 196, 4-(6-(3-cyclohexyl-1H-pyrazol-1-yl)-2-(2-(1-methyl-1H-pyrazol-4-yl)ethoxy)pyrimidin-4-yl)morpholine] | – | > 5000 nM |
| Cc1c2ccc(CO)cc2nn1-c1cc(N2CCOCC2)nc(OCCc2cnn(C)c2)n1 [Compound 255, (3-methyl-2-(2-(2-(1-methyl-1H-pyrazol-4-yl)ethoxy)-6-morpholinopyrimidin-4-yl)-2H-indazol-6-yl)methanol] | – | 10 to 100 nM |
| Cc1cccc(-c2ccn(-c3nc4c(c(N5CCOCC5)n3)CN(CCc3ccn(C)n3)C4)n2)c1 [Compound 239, 4-(6-(2-(1-methyl-1H-pyrazol-3-yl)ethyl)-2-(3-(m-tolyl)-1H-pyrazol-1-yl)-6,7-dihydro-5H-pyrrolo[3,4-d]pyrimidin-4-yl)morpholine hydrochloride] | – | 10 to 100 nM |
| CO[C@H](CO)c1nc(N2CCOCC2)cc(-n2nc(-c3c[nH]c4cccnc34)cc2C)n1 [Compound 290, (S)-2-methoxy-2-(4-(5-methyl-3-(1H-pyrrolo[3,2-b]pyridin-3-yl)-1H-pyrazol-1-yl)-6-morpholinopyrimidin-2-yl)ethan-1-ol] | – | 100 to 5000 nM |
| Cc1cccc(-c2ccn(-c3nc(NCCc4cnccn4)cc(N4CCOCC4)n3)n2)c1 [Compound 47] | 5 to 100 nM | – |
| CO[C@@H](CO)c1nc(N2CCOCC2)cc(-n2ccc(-c3cc(C)ccc3C)n2)n1 (single isomer, unassigned) [Compound 342] | – | 10 to 100 nM |
| CO[C@H](CO)c1nc(N2CCOCC2)cc(-n2nc(-c3c[nH]c4ccncc34)cc2C)n1 [Compound 288, (S)-2-methoxy-2-(4-(5-methyl-3-(1H-pyrrolo[3,2-c]pyridin-3-yl)-1H-pyrazol-1-yl)-6-morpholinopyrimidin-2-yl)ethan-1-ol] | – | 100 to 5000 nM |
| Cn1cc(CCOc2nc(N3CCOCC3)cc(-n3ccc(C4=CC(C)(C)CC=C4)n3)n2)cn1 [Compound 296, 4-(6-(3-(3,3-dimethylcyclohexa-1,5-dien-1-yl)-1H-pyrazol-1-yl)-2-(2-(1-methyl-1H-pyrazol-4-yl)ethoxy)pyrimidin-4-yl)morpholine] | – | 100 to 5000 nM |
| Cc1cccc(-c2ccn(-c3nc(OCCc4cnn(C)c4)cc(N4CCOCC4)n3)n2)c1 [Compound 251, 4-(6-(2-(1-methyl-1H-pyrazol-4-yl)ethoxy)-2-(3-(m-tolyl)-1H-pyrazol-1-yl)pyrimidin-4-yl)morpholine] | – | 3 to 10 nM |
| CO[C@H](CO)c1nc(N2CCOCC2)cc(-n2nc(-c3cnc4ccccn34)cc2C)n1 [Compound 280, (S)-2-(4-(3-(imidazo[1,2-a]pyridin-3-yl)-5-methyl-1H-pyrazol-1-yl)-6-morpholinopyrimidin-2-yl)-2-methoxyethan-1-ol] | – | 100 to 5000 nM |
| CCc1cc(-c2ccccc2)nn1-c1cc(N2CCOCC2)nc([C@H](CO)OC)n1 [Compound 295, (R)-2-(4-(5-ethyl-3-phenyl-1H-pyrazol-1-yl)-6-morpholinopyrimidin-2-yl)-2-methoxyethan-1-ol] | – | 10 to 100 nM |
| Cn1cc(CCOc2nc(N3CCOCC3)cc(-n3ccc(C4CCC4)n3)n2)cn1 [Compound 192, 4-(6-(3-cyclobutyl-1H-pyrazol-1-yl)-2-(2-(1-methyl-1H-pyrazol-4-yl)ethoxy)pyrimidin-4-yl)morpholine] | – | 100 to 5000 nM |

| Structure (SMILES) | IC50 (Table 2) | IC50 (Table 3) |
| --- | --- | --- |
| CO[C@H](CO)c1nc(N2CCOCC2)cc(-n2ccc(-c3cccc4c3COC4)n2)n1 [Compound 270, (S)-2-(4-(3-(1,3-dihydroisobenzofuran-4-yl)-1H-pyrazol-1-yl)-6-morpholinopyrimidin-2-yl)-2-methoxyethan-1-ol] | – | 100 to 5000 nM |
| Cc1c2cc(CN(C)C)ccc2nn1-c1cc(N2CCOCC2)nc(OCCc2cnn(C)c2)n1 [Compound 254, N,N-dimethyl-1-(3-methyl-2-(2-(2-(1-methyl-1H-pyrazol-4-yl)ethoxy)-6-morpholinopyrimidin-4-yl)-2H-indazol-5-yl)methanamine] | – | 100 to 5000 nM |
| CO[C@@H](CO)c1nc(N2CCOCC2)cc(-n2nc(-c3ccccc3)cc2C2CC2)n1 (single isomer, unassigned) [Compound 257] | – | 10 to 100 nM |
| Cn1cc(CCOc2nc(Oc3cc(-c4ccccc4)n(C)n3)cc(N3CCOCC3)n2)cn1 [Compound 213, 4-(2-(2-(1-methyl-1H-pyrazol-4-yl)ethoxy)-6-((1-methyl-5-phenyl-1H-pyrazol-3-yl)oxy)pyrimidin-4-yl)morpholine] | – | 100 to 5000 nM |
| Cc1cccc(-c2cn(C)n(-c3cc(N4CCOCC4)nc(OCCc4cnn(C)c4)n3)c2=O)c1 [Compound 247, 1-methyl-2-(2-(2-(1-methyl-1H-pyrazol-4-yl)ethoxy)-6-morpholinopyrimidin-4-yl)-4-(m-tolyl)-1,2-dihydro-3H-pyrazol-3-one] | – | 100 to 5000 nM |
| CO[C@@H](CO)c1nc(N2CCOCC2)cc(-n2ccc(-c3cccc(C)c3C)n2)n1 [Compound 265, (R)-2-(4-(3-(2,3-dimethylphenyl)-1H-pyrazol-1-yl)-6-morpholinopyrimidin-2-yl)-2-methoxyethan-1-ol] | – | 100 to 5000 nM |
| OCc1nc(N2CCOCC2)cc(-n2ccc(-c3ccccc3)n2)n1 [Compound 84] | 5 to 100 nM | – |
| Cc1cccc(-c2ccn(-c3cc(N4CCOCC4)nc(NC(=O)Cc4cnn(C)c4)n3)n2)c1 [Compound 65] | < 5 nM | – |
| CO[C@@H](CO)c1nc(N2CCOCC2)cc(-n2nc(-c3c[nH]c4cnccc34)cc2C)n1 [Compound 287, (R)-2-methoxy-2-(4-(5-methyl-3-(1H-pyrrolo[2,3-c]pyridin-3-yl)-1H-pyrazol-1-yl)-6-morpholinopyrimidin-2-yl)ethan-1-ol] | – | 100 to 5000 nM |
| CO[C@H](CO)c1nc(N2CCOCC2)cc(-n2nc(-c3c[nH]c4ncccc34)cc2C)n1 [Compound 284, (S)-2-methoxy-2-(4-(5-methyl-3-(1H-pyrrolo[2,3-b]pyridin-3-yl)-1H-pyrazol-1-yl)-6-morpholinopyrimidin-2-yl)ethan-1-ol] | – | 10 to 100 nM |
| CN(c1nc(OCCc2cnn(C)c2)cc(N2CCOCC2)n1)c1ncc2ccccc2n1 [Compound 252, N-methyl-N-(4-(2-(1-methyl-1H-pyrazol-4-yl)ethoxy)-6-morpholinopyrimidin-2-yl)quinazolin-2-amine] | – | > 5000 nM |
| c1cc(-c2cc(N3CCOCC3)nc(OCC3CCCO3)n2)n[nH]1 (centres unmarked) [Compound 45, 4-(6-(1H-pyrazol-3-yl)-2-((tetrahydrofuran-2-yl)methoxy)pyrimidin-4-yl)morpholine] | 101 to 1000 nM | – |
| Cc1cccc(-c2ccn(-c3cc(N4CC[C@H]5OCC[C@H]54)nc(C(O)CO)n3)n2)c1 (some centres unmarked) [Compound 48] | 101 to 1000 nM | – |
| Fc1ccc(-c2cnn(-c3cc(N4CC[C@H]5OCC[C@H]54)nc(OCCc4ccccn4)n3)c2)cc1 [Compound 41] | 1000 to 10000 nM | – |
| Cc1cccc(-c2ccn(-c3cc(N4CCOCC4)nc(OCCc4ccccn4)n3)n2)c1 [Compound 92, 4-(2-(2-(pyridin-2-yl)ethoxy)-6-(3-(m-tolyl)-1H-pyrazol-1-yl)pyrimidin-4-yl)morpholine] | – | 3 to 10 nM |
| COC(CO)c1nc(N2CCOCC2)cc(-n2ccc(-c3cccc(C)c3)n2)n1 (centres unmarked) [Compound 50] | < 5 nM | – |
| CO[C@H](CO)c1nc(N2CCOCC2)cc(-n2ccc(-c3cc(C)ccc3C)n2)n1 (single isomer, unassigned) [Compound 343] | – | 10 to 100 nM |
| Cc1cccc(-c2ccn(-c3cc(N4CC[C@H]5OCC[C@H]54)nc(C(O)CO)n3)n2)c1 (stereo partly drawn) [Compound 151, 1-(4-((3aR,6aR)-hexahydro-4H-furo[3,2-b]pyrrol-4-yl)-6-(3-(m-tolyl)-1H-pyrazol-1-yl)pyrimidin-2-yl)ethane-1,2-diol] | – | 10 to 100 nM |
| Cc1cccc(CC(=O)Nc2nc(OCCc3cnn(C)c3)cc(N3CCOCC3)n2)c1 [Compound 248, N-(4-(2-(1-methyl-1H-pyrazol-4-yl)ethoxy)-6-morpholinopyrimidin-2-yl)-2-(m-tolyl)acetamide] | – | > 5000 nM |
| CO[C@H](CO)c1nc(N2CCOCC2)cc(-n2nc(-c3c[nH]c4cnccc34)cc2C)n1 [Compound 286, (S)-2-methoxy-2-(4-(5-methyl-3-(1H-pyrrolo[2,3-c]pyridin-3-yl)-1H-pyrazol-1-yl)-6-morpholinopyrimidin-2-yl)ethan-1-ol] | – | 100 to 5000 nM |
